The values below come from patent publication US7091351B2, “Vanadium compounds for treating cancer” (Parker Hughes Institute, priority 1998, dated 2006).

Holding throughout (format): cell-based, human
Series [1] deals with Ntera-2 testicular cancer cells. The series can be described thus: MTT cytotoxicity assay of vanadocenes, NTERA-2 cells. Particulars: 24 h, 1.9-250 μM. The essentials:
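Cells seeded in triplicate, after 24 h exposed to two-fold serial dilutions of vanadocenes (1.9–250 μM; DMSO vehicle, 0.25% DMSO control) for 24 h. MTT added for 4 h at 37 °C, formazan dissolved in SDS/HCl overnight, OD read at 540 nm; IC50 values reported.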

The test system of series [2] is NALM-6 B-lineage acute lymphoblastic leukemia cells. The series can be described thus: MTT cytotoxicity assay of vanadocenes, NALM-6 cells. Particulars: 24 h. Here is the method:
Human testicular cancer cell lines, Tera-2 (embryonal carcinoma) and Ntera-2 (pluripotent embryonal carcinoma) were obtained from the American Type Culture Collection (ATCC) (Rockeville, Md.) and propagated in T-25, T-75, or T-150 cm^2 tissue culture flasks (Corning Corp., Corning, N.Y.) in McCoy's 5A medium and Dulbecco's modified Eagle's medium respectively. Both media were supplemented with 10% fetal calf serum (FCS), 4 mM glutamine, 100 U/ml penicillin G, and […] streptomycin sulfate. All tissue culture reagents were obtained from Life Technologies Inc. (GIBCO-BRL), Gaithersburg, Md. Cell lines were cultivated for a minimum of two passages after thawing prior to experimentation. Other cell lines that were used in this study were the human B-lineage acute lymphoblastic leukemia (ALL) cell line NALM-6. Uckun, F. M., Evans, W. E., Forsyth, C. J., Waddick, K. G., Tuel-Ahlgren, L., Chelstrom, L. M., Burkhardt, A., Bolen, J., Myers, D. E. Biotherapy of B-cell precursor leukemia by targeting genistein to CD19-associated tyrosine kinase. Science (Washington DC) 267:886–91, 1995; T-lineage ALL cell line MOLT-3, Waurzyniak, B., Shneider, E. A., Tumer, N., Yanishevski, Y., Gunther, R., Chelstrom, L., Wendorf, H., Myers, D. E., Irvin, J. D., Messinger, Y., Ek, O., Zeren, T., Chandan-Langlie, M., Evans, W. E., Uckun, F. M. In vivo toxicity, pharmacokinetics, and antileukemic activity of TXU (anti-CD7)-pokeweed antiviral protein immunotoxin. Clinical Cancer Research 3:881–890, 1997; AML cell line HL-60, Perentesis, J. P., Waddick, K. G., Bendel, A. E., Shao, Y., Warman, B. E., Chandan-Langlie, M., and Uckun, F. M. Induction of apoptosis in multi-drug resistant andradiation-resistant acute myeloid leukemia cells by a recombinant fusion toxin directed against the granulocyte macrophage colony stimulating factor receptor. Clin. Cancer Res. 3:347–355, 1997; breast cancer cell lines MDA-MB-231 and BT-20, Uckun, F. M., Narla, R. K., Jun, X., Zeren, T., Venkatachalam, T., Waddick, K. G., Rostostev, A., Myers, D. E. Cytotoxic activity of EGF-genstein against breast cancer cells. Clin. Cancer Res. 4:901–912, 1998; glioblastoma cell lines U87 and U373, Narla, R. K., Liu, X., Myers, D. E., and Uckun, F. M. 4-(3′-Bromo-4′hydroxylphenyl)-amino-6,7-dimethoxyquinazoline (WHI-P154): A novel quinazoline derivative with potent cytotoxic activity against human glioblastoma cells. Clin. Cancer Res. 4:1405–1414, 1998.
MTT (3-[4,5-dimethyl thiazol-2-yl]-2,5-diphenyltetrazolium bromide)-based colorimetric assays were used for evaluation of the cytotoxicity of vanadocene compounds. Mosmann, T. Rapid colorimetric assay for cellular growth and survival: application to proliferation and cytotoxicity assays. J. Immunol. Methods, 65: 55–63, 1983. Briefly, cells were harvested with 0.125% (w/v) trypsin-0.02% EDTA (GIBCO-BRL) from exponential-phase maintenance cultures and centrifuged (300 g×5 min). After suspension and counting, cells were dispensed within triplicate 96-well tissue culture plates in 100 μl volumes. After 24 h incubation, the culture medium was discarded and replaced with 100 μl of fresh medium containing serial two-fold dilutions of drugs in medium to yield 1.9 μM to 250 μM. All compounds were reconstituted in DMSO to a concentration of 100 mM, and the stock solution was made fresh for each experiment. Control wells consisted of medium containing 0.25% of DMSO alone were used for solvent control. […]
Background: Formazan colour is commonly taken as a measure of viable cells.

The test system of series [3] is 64cp5 testicular cancer cells. Put plainly: Cytotoxic activity of oxovanadium(IV) compounds, 64cp5. Particulars: read-out: Cytotoxic Activity 64cp5. The essentials:
(§1)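 MTT read-out at 540 nm (reference 690 nm), converted to live cell number with per-line standard curves, then % survival versus untreated control. Cells were treated 48 h at 37° C with 0.1–250 μM compound. IC50 obtained by non-linear regression.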

Series [4] has as its system U266BL multiple myeloma cells. The series can be described thus: MTT cytotoxicity assay of oxovanadium(IV) compounds, U266BL. Particulars: 48 hr. The essentials: as §1
Series [5] has as its system Tera-2 testicular cancer cells. The series can be described thus: Cytotoxic activity of oxovanadium(IV) compounds, TERA-2. Particulars: read-out: Cytotoxic Activity TERA-2. The essentials: as §1
In series [6] the test system is HS-SULTAN multiple myeloma cells. The series can be described thus: MTT cytotoxicity assay of oxovanadium(IV) compounds, HS-SULTAN. Particulars: 48 hr. The essentials:
as §1

For the compound `[Cl-].[Cl-].[V+4].c1cc[cH-]c1.c1cc[cH-]c1` [VDC, VCp2Cl2], the values for the IC50 in series [1] and in series [2] were 74 µM and 19 µM, respectively.

As to “bis(4,7-dimethyl-1,10-phenanthroline)sulfatooxovanadium(IV) [Compound 29]”, the IC50 in series [3] was 0.75 µM; in series [4], 0.5 ± 0.02 µM; in series [5], 19.5 µM; in series [6] it was 0.8 ± 0.05 µM.
